The values below are quoted from earlier work in patent US9371350B2, “Trehalose derivatives and pharmaceutical compositions for treating neurodegenerative diseases” (POSTECH ACADEMY-INDUSTRY FOUNDATION, priority 2008, dated 2016).

The conditions of series [1]: background, literature report.
Series [2] has as its system polyglutamine-induced aggregate formation. The settings on record: in vivo mouse model, literature report.

Regarding `O[C@H]1[C@H](O)[C@@H](O)[C@H](O)[C@@H](O)[C@H]1O` [inositol], the “passage through the BBB to the brain” value in series [1] is recorded as “difficulty in passing through the blood-brain barrier”.
In the case of `OC[C@H]1O[C@H](O[C@H]2O[C@H](CO)[C@@H](O)[C@H](O)[C@H]2O)[C@H](O)[C@@H](O)[C@@H]1O` [trehalose], in series [1], the “passage through the BBB to the brain” value is given as “cannot pass through the BBB”. Besides, in series [2], the “inhibition of polyglutamine-induced aggregate formation” value is reported as “efficiently inhibit”.
